Experimental data reported in patent US20100016208A1, “PHOTOACTIVATABLE ANTIMICROBIAL AGENTS” (priority 2005, published 2010).

Legend:
[1] = Fluorescence emission spectra of prodrug vs. free photosensitizer (TBO); assay type: physicochemical; settings: ethanol, 635 nm excitation
[2] = target: β-lactamase from Enterobacter cloacae (Enterobacter cloacae, UniProt P05364); test: Enzyme-mediated cleavage of the prodrug (fluorescence emission, photosensitizer release); assay type: biochemical
Protocol: Enzyme-mediated cleavage of the prodrug The prodrug obtained was further studied for release of photosensitizer in presence of β-lactamase from Enterobacter cloacae. For the fluorescence emission study of the prodrug, the solvent employed was water, and the excitation wavelength 635 nm in the presence of beta-lactamase enzyme (from Enterobacter cloacae). Time-dependent fluorescence emission was also measured for photosensitizer release from the prodrug in the presence of enzyme. […] Thus, the prodrug was synthesized and characterized.

β-lactamase from Enterobacter cloacae, sequence (P05364 21-381): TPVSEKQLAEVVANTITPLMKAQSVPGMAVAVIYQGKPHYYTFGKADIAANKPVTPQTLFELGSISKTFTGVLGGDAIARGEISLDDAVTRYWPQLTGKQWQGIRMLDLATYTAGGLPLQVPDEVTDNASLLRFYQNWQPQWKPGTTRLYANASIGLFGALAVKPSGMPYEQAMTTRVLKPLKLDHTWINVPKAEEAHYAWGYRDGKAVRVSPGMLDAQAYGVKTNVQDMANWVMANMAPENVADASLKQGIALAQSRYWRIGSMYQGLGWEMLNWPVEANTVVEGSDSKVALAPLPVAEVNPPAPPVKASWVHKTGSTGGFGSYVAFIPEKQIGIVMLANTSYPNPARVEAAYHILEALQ

Cephalosporanic Acid-Toluidine BlueO Prodrug
reduction in fluorescence emission maxima (quenching of the photosensitizer upon conjugation with the cephalosporin moiety) [1]: ~8 fold
enzyme specificity of photosensitizer release ([2]; beta-lactamase enzyme (from Enterobacter cloacae)): lactamase-specific activity
increase in excited stated properties (fluorescence emission) on incubation with enzyme ([2]; water, 635 nm excitation, within minutes of incubation of prodrug with enzyme): ~5 fold
